This is an account of results in US20250387356A1 (SpringWorks Therapeutics, Inc., priority 2024, published 2025).

The test system of data set [1] is NF1-associated plexiform neurofibromas (PNs). As to the kind of experiment: Phase 2b trial of mirdametinib in adult and pediatric patients: confirmed objective response by BICR volumetric MRI per REiNS criteria. In kind it is in vivo, human. As to the method: Study treatment was administered orally at a twice daily (BID) dose specified in the table below. Dosing was on a 28-day Cycle (4-week course) with a 3 week on/1 week off schedule. The treatment period will last for up to 24 Cycles followed by a 30-day Safety Follow-Up period.
A partial response was defined as PN decrease ≥20% compared to baseline using centrally read MRI volumetric analysis.
The major efficacy outcome measure was confirmed objective response rate (ORR), defined as the percentage of patients with complete response (disappearance of the target PN) or confirmed partial response ([…]). Responses were assessed by blinded independent central review (BICR) using volumetric magnetic resonance imaging (MRI) analysis per Response Evaluation in Neurofibromatosis and Schwannomatosis (REiNS) criteria. A secondary efficacy objective was to determine the duration of response for patients who achieved a confirmed objective response.

Data set [2] in a line: Mirdametinib pharmacokinetic parameters (Table A): exposure, absorption, food effect, distribution, elimination. In kind it is in vivo. The note with it: human, plasma, oral.

SMILES strings stand for the structures.

Regarding `O=C(NOC[C@H](O)CO)c1ccc(F)c(F)c1Nc1ccc(I)cc1F` (single isomer, unassigned) [mirdametinib], the “ORR, also considering patients who achieved a confirmed objective response after cycle 24” value stood at 45% in data set [1] (adults) and 54% in data set [1] (pediatric patients). Moreover, in data set [2] (read-out: Apparent systemic clearance [Mean (% CV)] (converted)), the clearance was 106 mL/min. Besides, the Vd in data set [2] (read-out: Apparent volume of distribution [Mean (% CV)]) was 255 L. Besides, the half-life in data set [2] (read-out: Terminal elimination half-life [Mean (% CV)] (converted)) was 28 h.

One may read the half-life as the time needed for the level to fall by half in the phase considered.
